Reference: patent US10294202B2, “Pyrrolidinones as herbicides” (FMC Corporation, priority 2013, dated 2019)
Where “and” joins values, the source holds several entries; their conditions need not be identical. Equal values may be shown once.

Assays:
morningglory = assay: Test A pre-/postemergence herbicide test; type: in vivo, Ipomoea spp.; settings: 1000 g ai/ha
Outline: (§1)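 Seeds sown in loam soil/sand blend received a preemergence directed soil spray of test chemical in non-phytotoxic solvent with surfactant; postemergence plants (2–10 cm, one- to two-leaf stage) were sprayed with the same formulation. After about 10 days in greenhouse, injury was rated visually versus untreated controls, 0 (no effect) to 100 (complete control).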

rice = assay: Test B flooded paddy test; type: in vivo, Oryza sativa; settings: 1000 g ai/ha, Flood; scale of 0 to 100 where 0 is no effect and 100 is complete control
Outline: (§2)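 First, plants reach the 2-leaf stage; next, pots are flooded to 3 cm and compound is delivered into the water; finally, after 13 to 15 greenhouse days at constant depth, injury is graded visually from 0 to 100 against controls.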

ducksalad = assay: Test B flooded paddy test; type: in vivo, Heteranthera limosa; settings: 1000 g ai/ha, Flood; scale of 0 to 100 where 0 is no effect and 100 is complete control
Outline: as §2

wheat = assay: Test A pre-/postemergence herbicide test; type: in vivo, Triticum aestivum; settings: 1000 g ai/ha
Outline: as §1

velvetleaf = assay: Test A pre-/postemergence herbicide test; type: in vivo, Abutilon theophrasti; settings: 1000 g ai/ha
Outline: as §1

crabgrass, large = assay: Test A pre-/postemergence herbicide test; type: in vivo, Digitaria sanguinalis; settings: 1000 g ai/ha
Outline: as §1

barnyardgrass [1] = assay: Test A pre-/postemergence herbicide test; type: in vivo, Echinochloa crus-galli; settings: 1000 g ai/ha
Outline: as §1

barnyardgrass [2] = assay: Test B flooded paddy test; type: in vivo, Echinochloa crus-galli; settings: 1000 g ai/ha, Flood; scale of 0 to 100 where 0 is no effect and 100 is complete control
Outline: as §2

sedge, umbrella = assay: Test B flooded paddy test; type: in vivo, Cyperus difformis; settings: 1000 g ai/ha, Flood; scale of 0 to 100 where 0 is no effect and 100 is complete control
Outline: as §2

pigweed = assay: Test A pre-/postemergence herbicide test; type: in vivo, Amaranthus retroflexus; settings: 1000 g ai/ha
Outline: as §1

watergrass, late = assay: Test F flood (paddy) test; type: in vivo, Echinochloa oryzicola; settings: 21 d, scale 0-100
Source text: (§3) Three plastic pots (ca. 16-cm diameter) per rate were partially filled with sterilized Tama silt loam soil comprising a 35:50:15 ratio of sand, silt and clay and 2.6% organic matter. Separate plantings for each of the three pots were as follows. Seeds from the U.S. of monochoria (Monochoria vaginalis), sedge, umbrella (small-flower umbrella sedge, Cyperus difformis), bulrush, […] bulrush, Scirpus juncoides), and […] (purple […] coccinea), were planted into one 16-cm pot for each rate. Seeds from the U.S. of flatsedge, rice (rice flatsedge, Cyperus iria), sprangletop, Brdd. (bearded sprangletop, Leptochloa fascicularis), one stand of 9 or 10 water seeded rice seedlings (Rice, W.S. Jap, Oryza sativa cv. 'Japonica-[…]' or Rice, W.S. Ind, 'Indica'), and two stands of 3 or 4 seedlings of rice, transplanted (transplanted rice, Oryza sativa cv. 'Japonica-[…]') were planted into one 16-cm pot for each rate. Seeds from the U.S. of barnyardgrass (Echinochloa crus-galli), […] (common […], Alisma plantago-aquatica), and watergrass, late (late watergrass, Echinochloa oryzicola) were planted into one 16-cm pot for each rate. Plantings were sequential so that crop and weed species were at the 2.0 to 2.5-leaf stage at time of treatment. Potted plants were grown in a greenhouse with day/night temperature settings of 30/27° C., and supplemental balanced lighting was provided to maintain a 16-h photoperiod. Test pots were maintained in the greenhouse until test completion. At time of treatment, test pots were flooded to 3 cm above the soil surface, treated by application of test compounds directly to the paddy water, and then maintained at that water depth for the duration of the test. Effects of treatments on rice and weeds were visually evaluated by comparison to untreated controls after 21 d. Plant response ratings, summarized in Table F, are based on a scale of 0 to 100 where 0 is no effect and 100 is complete control. A dash (-) response means no test result.

Rice, W.S. Ind = assay: Test F flood (paddy) test; type: in vivo, Oryza sativa Indica; settings: 21 d, scale 0-100
Source text: as §3

rice, transplanted = assay: Test F flood (paddy) test; type: in vivo, Oryza sativa cv. Japonica—M202; settings: 21 d, scale 0-100
Source text: as §3

sprangletop, Brdd. = assay: Test F flood (paddy) test; type: in vivo, Leptochloa fascicularis; settings: 21 d, scale 0-100
Source text: as §3

giant foxtail = assay: Test A pre-/postemergence herbicide test; type: in vivo, Setaria faberii; settings: 1000 g ai/ha
Outline: as §1

monochoria = assay: Test F flood (paddy) test; type: in vivo, Monochoria vaginalis; settings: 21 d, scale 0-100
Source text: as §3

barnyardgrass [3] = assay: Test F flood (paddy) test; type: in vivo, Echinochloa crus-galli; settings: 21 d, scale 0-100
Source text: as §3

corn = assay: Test A pre-/postemergence herbicide test; type: in vivo, Zea mays; settings: 1000 g ai/ha
Outline: as §1

[4] = system: transplanted japonica rice (ORYSA); assay: Test G paddy mixture test (Colby); type: in vivo, Oryza sativa; settings: applied alone, 100 g a.i./ha; flooded, 14 d
Procedure: (§4) Seeds of small-flower umbrella […], Cyperus difformis) and […], Heteranthera limosa) were sown on the soil surface in two separate quadrants of 11-cm (4-inch) tubs filled with steam pasteurized Tama soil. Simultaneously, plantings of […], Echinochloa crus-galli) and transplanted japonica rice (ORYSA, Oryza sativa) were established in separate “plug” flats. […] Herbicide application timing was targeted at the 2.0 to 2.5 leaf stage and the plants were treated with test chemicals formulated in a non-phytotoxic solvent. Treated plants and controls were maintained in a greenhouse for 14 d, after which time all species were compared to controls and visually evaluated. Plant response ratings are summarized in Tables G1 through G12, and are based on a scale of 0 to 100 where 0 is no effect and 100 is complete control. A dash (-) response means no test result. Colby's Equation was used to determine the herbicidal effects expected from the mixtures. Colby's Equation (Colby, S. R. “Calculating Synergistic and Antagonistic Responses of Herbicide Combinations,” Weeds, 15(1), pp 20-22 (1967)) calculates the expected additive effect of herbicidal mixtures and for two active ingredients is of the form: Pa+b=Pa+Pb-(PaPb/100) where • Pa+b is the percentage effect of the mixture expected from additive contribution of the individual components: • Pa is the observed percentage effect of the first active ingredient at the same use rate as in the mixture, and • Pb is the observed percentage effect of the second active ingredient at the same use rate as in the mixture. In the following Tables, rates are shown in grams of active ingredient per […]); “Obsd.” is the observed effect. “Exp.” is the expected effect calculated from Colby's Equation.

ducksalad (HETLI) = assay: Test G paddy mixture test (Colby); type: in vivo, Heteranthera limosa; settings: applied alone, 14 d; for HETLI Obsd. plant response rating (scale 0 to 100): flooded
Procedure: as §4

[5] = system: small-flower umbrella sedge (CYPDI); assay: Test G paddy mixture test (Colby); type: in vivo, Cyperus difformis; settings: applied alone, 14 d; for CYPDI Obsd. plant response rating (scale 0 to 100): flooded
Procedure: as §4

barnyardgrass (ECHCG) = assay: Test G paddy mixture test (Colby); type: in vivo, Echinochloa crus-galli; settings: applied alone, flooded, 14 d
Procedure: as §4

[6] = Postemergence, 0 to 100 scale (0 no effect, 100 complete control)
[7] = Preemergence, visual rating on 0 to 100 scale (0 no effect, 100 complete control), approx. 10 days

For `O=C1NCC(c2ccc(F)c(F)c2)C1C(=O)Nc1ccccc1Cl` (racemic) [Compound 99], the “Plant response rating, Morningglory” value (morningglory; [6]) was 10, the “Plant response rating, Morningglory” value (morningglory; [7]) was 0 and the “Plant response rating, Rice” value (rice) was 10. The “Plant response rating, Ducksalad” value (ducksalad) was 95, the “Plant response rating, Wheat” value (wheat; [6]) was 20 and the “Plant response rating, Wheat” value (wheat; [7]) was 20. The “Plant response rating, Velvetleaf” value (velvetleaf; [6]) was 10, the “Plant response rating, Velvetleaf” value (velvetleaf; [7]) was 0 and the “Plant response rating, Crabgrass, Large” value (crabgrass, large; [6]) was 90. The “Plant response rating, Crabgrass, Large” value (crabgrass, large; [7]) was 90, the “Plant response rating, Barnyardgrass” value (barnyardgrass [1]; [6]) was 90 and the “Plant response rating, Barnyardgrass” value (barnyardgrass [1]; [7]) was 90. For the same compound, the “Plant response rating, Barnyardgrass” value (barnyardgrass [2]) was 80, the “Plant response rating, Sedge, Umbrella” value (sedge, umbrella) was 0 and the “Plant response rating, Pigweed” value (pigweed; [6]) was 0. For the same compound, the “Plant response rating, Pigweed” value (pigweed; [7]) was 0, the “Plant response rating, Watergrass, Late” value (watergrass, late; 125 g ai/ha) was 30 and the “Plant response rating, Watergrass, Late” value (watergrass, late; 250 g ai/ha) was 40. For the same compound, the “Plant response rating, Watergrass, Late” value (watergrass, late; 500 g ai/ha) was 50, the “Plant response rating, Rice, W.S. Ind” value (Rice, W.S. Ind; 125 g ai/ha) was 0 and the “Plant response rating, Rice, W.S. Ind” value (Rice, W.S. Ind; 250 g ai/ha) was 0. For the same compound, the “Plant response rating, Rice, W.S. Ind” value (Rice, W.S. Ind; 500 g ai/ha) was 0, the “Plant response rating, Rice, Transplanted” value (rice, transplanted; 125 g ai/ha) was 0 and the “Plant response rating, Rice, Transplanted” value (rice, transplanted; 250 g ai/ha) was 0. The “Plant response rating, Rice, Transplanted” value (rice, transplanted; 500 g ai/ha) was 0, the “Plant response rating, Sprangletop, Brdd.” value (sprangletop, Brdd.; 125 g ai/ha) was 0 and the “Plant response rating, Sprangletop, Brdd.” value (sprangletop, Brdd.; 250 g ai/ha) was 75. For the same compound, the “Plant response rating, Sprangletop, Brdd.” value (sprangletop, Brdd.; 500 g ai/ha) was 85, the “Plant response rating, Foxtail, Giant” value (giant foxtail; [6]) was 90 and the “Plant response rating, Foxtail, Giant” value (giant foxtail; [7]) was 90. For the same compound, the “Plant response rating, Monochoria” value (monochoria; 125 g ai/ha) was 50, the “Plant response rating, Monochoria” value (monochoria; 250 g ai/ha) was 85 and the “Plant response rating, Monochoria” value (monochoria; 500 g ai/ha) was 95. For the same compound, the “Plant response rating, Barnyardgrass” value (barnyardgrass [3]; 125 g ai/ha) was 25, the “Plant response rating, Barnyardgrass” value (barnyardgrass [3]; 250 g ai/ha) was 50 and the “Plant response rating, Barnyardgrass” value (barnyardgrass [3]; 500 g ai/ha) was 80. The “Plant response rating, Corn” value (corn; [6]) was 20 and the “Plant response rating, Corn” value (corn; [7]) was 20.

With `CCN(C(=O)n1nnn(-c2ccccc2Cl)c1=O)C1CCCCC1` [Fentrazamide] the “ORYSA Obsd. plant response rating (scale 0 to 100)” value [4] was 0, the “HETLI Obsd. plant response rating (scale 0 to 100)” value (ducksalad (HETLI); 100 g a.i./ha) was 85 and 100 and the “HETLI Obsd. plant response rating (scale 0 to 100)” value (ducksalad (HETLI); 200 g a.i./ha) was 100. For the same compound, the “CYPDI Obsd. plant response rating (scale 0 to 100)” value ([5]; 100 g a.i./ha) was 90 and 100, the “CYPDI Obsd. plant response rating (scale 0 to 100)” value ([5]; 200 g a.i./ha) was 100 and the “ECHCG Obsd. plant response rating (scale 0 to 100)” value (barnyardgrass (ECHCG); 100 g a.i./ha) was 50 and 85. The “ECHCG Obsd. plant response rating (scale 0 to 100)” value (barnyardgrass (ECHCG); 200 g a.i./ha) was 95 and 85.

In the case of `CN(C(=O)COc1nc2ccccc2s1)c1ccccc1` [Mefenecet], the “HETLI Obsd.” value (ducksalad (HETLI); 300 g a.i./ha, scale 0-100) is reported as 100 and the “CYPDI Obsd.” value ([5]; 300 g a.i./ha, scale 0-100) is reported as 100.
